Data as given in patent publication US7569577B2, “Quinazoline derivatives as tyrosine kinase inhibitors” (Astrazeneca AB, priority 2003, dated 2009).

Columns and labels:
EGFR tyrosine kinase = biological target: T1, EGFR tyrosine kinase (Homo sapiens, UniProt P00533); assay: Protein tyrosine kinase phosphorylation assay, Test (a); assay type: biochemical; settings: ATP at Km concentration; read-out: IC50 (nM) Test (a) (Inhibition of EGFR tyrosine kinase protein phosphorylation)
T1 construct: Recombinant intracellular fragments of EGFR, erbB2 and erbB4; made in house; host or cells: baculovirus/Sf21 insect cells (cleared lysate used)
Experimental: This test measures the ability of a test compound to inhibit the phosphorylation of a tyrosine containing polypeptide substrate by EGFR, erbB2 or erbB4 tyrosine kinase enzyme.
Recombinant intracellular fragments of EGFR, erbB2 and erbB4 (accession numbers X00588, X03363 and L07868 respectively) were cloned and expressed in the baculovirus/Sf21 system. Lysates were prepared from these cells by treatment with ice-cold lysis buffer (20 mM N-2-hydroxyethylpiperizine-N′-2-ethanesulfonic acid (HEPES) pH 7.5, 150 mM NaCl, 10% glycerol, 1% Triton X-100, 1.5 mM MgCl2, 1 mM ethylene glycol-bis(β-aminoethyl ether) N′,N′,N′,N′-tetraacetic acid (EGTA), plus protease inhibitors and then cleared by centrifugation.
Constitutive kinase activity of these recombinant proteins was determined by their ability to phosphorylate a synthetic peptide (made up of a random co-polymer of Glutamic Acid, Alanine and Tyrosine in the ratio of 6:3:1). Specifically, Maxisorb™ 96-well immunoplates were coated with synthetic peptide (0.2 μg of peptide in a 200 μl phosphate buffered saline (PBS) solution and incubated at 4° C. overnight). Plates were washed in 50 mM HEPES pH 7.4 at room temperature to remove any excess unbound synthetic peptide. EGFR or erbB2 activities were assessed by incubation in peptide coated plates for 20 minutes at room temperature in 100 mM HEPES pH 7.4 at room temperature, adenosine trisphosphate (ATP) at Km concentration for the respective enzyme, 10 mM MnCl2, 0.1 mM Na3VO4, 0.2 mM DL-dithiothreitol (DTT), 0.1% Triton X-100 with test compound in DMSO (final concentration of 2.5%). Reactions were terminated by the removal of the liquid components of the assay followed by washing of the plates with PBS-T (phosphate buffered saline with 0.5% Tween 20).
The immobilised phospho-peptide product of the reaction was detected by immunological methods. Firstly, plates were incubated for 90 minutes at room temperature with anti-phosphotyrosine primary antibodies that were raised in the mouse (4G10 from Upstate Biotechnology). Following extensive washing, plates were treated with Horseradish Peroxidase (HRP) conjugated sheep anti-mouse secondary antibody (NXA931 from Amersham) for 60 minutes at room temperature. After further washing, HRP activity in each well of the plate was measured colorimetrically using 22′-Azino-di-[3-ethylbenzthiazoline sulfonate (6)] diammonium salt crystals (ABTS™ from Roche) as a substrate.
Quantification of colour development and thus enzyme activity was achieved by the measurement of absorbance at 405 nm on a Molecular Devices ThermoMax microplate reader. Kinase inhibition for a given compound was expressed as an IC50 value. […] The range of phosphorylation was calculated from the positive (vehicle plus ATP) and negative (vehicle minus ATP) control values.

KB cells = assay: EGFR driven KB cell proliferation assay, Test (b); assay type: cell-based; settings: Homo sapiens, 96 h, EGF 1 ng/ml, 4 days, MTT
Experimental: This assay measures the ability of a test compound to inhibit the proliferation of KB cells (human naso-pharangeal carcinoma obtained from the American Type Culture Collection (ATCC)).
KB cells were cultured in Dulbecco's modified Eagle's medium (DMEM) containing 10% foetal calf serum, 2 mM glutamine and non-essential amino acids at 37° C. in a 7.5% CO2 air incubator. Cells were harvested from the stock flasks using Trypsin/ethylaminediaminetetraacetic acid (EDTA). Cell density was measured using a haemocytometer and viability was calculated using trypan blue solution before being seeded at a density of 1.25×10^3 cells per well of a 96 well plate in DMEM containing 2.5% charcoal stripped serum, 1 mM glutamine and non-essential amino acids at 37° C. in 7.5% CO2 and allowed to settle for 4 hours.
Following adhesion to the plate, the cells are treated with or without EGF (final concentration of 1 ng/ml) and with or without compound at a range of concentrations in dimethylsulfoxide (DMSO) (0.1% final) before incubation for 4 days. Following the incubation period, cell numbers were determined by addition of 50 μl of 3-(4,5-Dimethylthiazol-2-yl)-2,5-diphenyltetrazolium bromide (MTT) (stock 5 mg/ml) for 2 hours. MTT solution was then tipped off, the plate gently tapped dry and the cells dissolved upon the addition of 100 μl of DMSO.
Absorbance of the solubilised cells was read at 540 nm using a Molecular Devices ThermoMax microplate reader. Inhibition of proliferation was expressed as an IC50 value. […] The range of proliferation was calculated from the positive (vehicle plus EGF) and negative (vehicle minus EGF) control values.

T1 sequence (P00533 669-1210 limits assumed): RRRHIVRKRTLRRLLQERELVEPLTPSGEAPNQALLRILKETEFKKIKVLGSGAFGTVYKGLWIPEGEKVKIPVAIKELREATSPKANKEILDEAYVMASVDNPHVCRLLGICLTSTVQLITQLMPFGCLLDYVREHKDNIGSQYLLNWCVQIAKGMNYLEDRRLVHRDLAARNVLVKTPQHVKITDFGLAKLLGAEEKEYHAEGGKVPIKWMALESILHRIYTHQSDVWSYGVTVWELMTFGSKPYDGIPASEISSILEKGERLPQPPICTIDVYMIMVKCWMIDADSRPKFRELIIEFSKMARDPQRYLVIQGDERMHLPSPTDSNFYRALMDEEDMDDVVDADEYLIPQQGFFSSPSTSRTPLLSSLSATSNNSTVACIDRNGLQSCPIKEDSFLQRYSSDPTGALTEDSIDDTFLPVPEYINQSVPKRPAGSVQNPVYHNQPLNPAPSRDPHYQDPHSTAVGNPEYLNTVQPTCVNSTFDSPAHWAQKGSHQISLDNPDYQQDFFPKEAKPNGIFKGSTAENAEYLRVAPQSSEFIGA

| melting point | IC50 (EGFR tyrosine kinase) | IC50 (KB cells) | Compound |
| --- | --- | --- | --- |
| 143.6 °C |  |  | COc1cc2c(Nc3ccc(F)c(Cl)c3)ncnc2cc1OC1CCN(C(=O)[C@@H](C)O)CC1 (hydrate or solvate) [Example 23, (2R)-1-[4-({4-[3-Chloro-4-fluoroanilino]-6methoxyquinazolin-7-yl}oxy)piperidin-1-yl]-1-oxopropan-2-ol] |
| 149 °C |  |  | COc1cc2c(Nc3ccc(Cl)cc3F)ncnc2cc1OC1CCN(C(=O)[C@H](C)O)CC1 (hydrate or solvate) [Example 32] |
| 118 °C |  |  | COc1cc2c(Nc3ccc(Cl)cc3F)ncnc2cc1OC1CCN(C(=O)[C@@H](C)O)CC1 (hydrate or solvate) [Example 33, (2R)-1-[4-({4-[4-chloro-2-fluoroanilino]-6-methoxyquinazolin-7-yl}oxy)piperidin-1-yl]-1-oxopropan-2-ol] |
| 193 °C |  |  | COc1cc2c(Nc3cccc(Cl)c3F)ncnc2cc1OC1CCN(C(=O)[C@@H]2CCCN2C)CC1 (hydrate or solvate) [Example 34, N-(3-chloro-2-fluorophenyl)-6-methoxy-7-{[1-(1-methyl-L-prolyl)piperidin-4-yl]oxy}quinazolin-4-amine] |
|  | 30 nM | 37 nM | COc1cc2c(Nc3cccc(Cl)c3F)ncnc2cc1OC1CCN(C(=O)CO)CC1 [4[1], 2-[4-({4-[3-Chloro-2-fluoroanilino]-6-methoxyquinazolin-7-yl}oxy)piperidin-1-yl]-2-oxoethanol] |
|  | 65 nM | 84 nM | COCCC(=O)N1CCC(Oc2cc3ncnc(Nc4cccc(Cl)c4F)c3cc2OC)CC1 [4[3], N-(3-Chloro-2-fluorophenyl)-6-methoxy-7-{[1-(3-methoxypropanoyl)piperidin-4-yl]oxy}quinazolin-4-amine] |
|  | 52 nM | 109 nM | COc1cc2c(Nc3cccc(Cl)c3F)ncnc2cc1OC1CCN(C(=O)CCO)CC1 [4[4], 3-[4-({4-[3-Chloro-2-fluoroanilino]-6-methoxyquinazolin-7-yl}oxy)piperidin-1-yl]-3-oxopropan-1-ol] |
| 110 to 111 °C | 76 nM | 112 nM | COCCOCC(=O)N1CCC(Oc2cc3ncnc(Nc4cccc(Cl)c4F)c3cc2OC)CC1 [Example 2, N-(3-Chloro-2-fluorophenyl)-6-methoxy-7-({1-[(2-methoxyethoxy)acetyl]piperidin-4-yl}oxy)quinazolin-4-amine] |
|  | 41 nM | 55 nM | COCC(=O)N1CCC(Oc2cc3ncnc(Nc4cccc(Cl)c4F)c3cc2OC)CC1 [Example 3, N-(3-Chloro-2-fluorophenyl)-6methoxy-7-{[1-(methoxyacetyl)piperidin-4-yl]oxy}quinazolin-4-amine] |
| 107 to 111 °C |  |  | COc1cc2c(Nc3cccc(Cl)c3F)ncnc2cc1OC1CCN(C(=O)[C@H](C)O)CC1 [Example 4[5], (2S)-1-[4-({4-[3-chloro-2-fluoroanilino]-6-methoxyquinazolin-7-yl}oxy)piperidin-1-yl]-1-oxopropan-2-ol] |
| 120 to 121 °C |  |  | COc1cc2c(Nc3cccc(Cl)c3F)ncnc2cc1O[C@H]1CCCN(C(=O)CN2CCN(C)CC2)C1 [Example 7, N-(3-Chloro-2-fluorophenyl)-6-methoxy-7-({(3S)-1-[(4-methylpiperazin-1-yl)acetyl]piperidin-3-yl}oxy)quinazolin-4-amine] |
| 189 to 189.5 °C |  |  | COc1cc2c(Nc3cccc(Cl)c3F)ncnc2cc1OC1CCN(C(=O)[C@@H](C)O)CC1 [Example 9, (2R)-1-[4-({4-[3-Chloro-2-fluoroanilino]-6-methoxyquinazolin-7-yl}oxy)piperidin-1-yl]-1-oxopropan-2-ol] |
